What was measured:
PI3Kα (p110α/p85α) = target: T1, PI3Kα (p110α/p85α) (Homo sapiens, UniProt P42336); assay: PI3Kα ADP-Glo assay; assay type: biochemical; details: 20 μM PIP2, 10 μM ATP, 30 minutes
T1 construct: GST (N); made in house; host or cells: Baculovirus-infected Sf9 cells
Outline: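 Recombinant full-length human GST-p110α/His-p85α, co-expressed in Sf9 cells, was incubated 30 min at room temperature with 20 μM PIP2 and 10 μM ATP. The buffer was 50 mM HEPES pH 7.4, 150 mM NaCl, 5 mM MgCl2, 1 mM DTT, 3 µM orthovanadate and 0.5% DMSO. ADP formed was detected by ADP-Glo luminescence.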

[1] = target: T2, mTor serine/threonine protein kinase (Homo sapiens, UniProt P42345); assay: mTor kinase radioisotope assay; assay type: biochemical; details: 70 uM ATP, 40 minutes; read-out: m-TOR IC50
T2 construct: FLAG; made in house; host or cells: Baculovirus expression system in Sf21 cells
Procedure: (F) an In Vitro Assay which-Determines the Ability of a Test Compound to Inhibit mTor Serine/Threonine Protein Kinase.
The ability of compounds to inhibit mTor activity was assayed using standard radioisotope assay for kinase. Briefly, FLAG-tagged, recombinant full-length human mTor (GenBank accession No. NM_004958) was expressed using baculovirus expression system in Sf21 cells and purified using antibody affinity column. Purified enzyme was incubated with c-terminal fragment of p70S6K as it's substrate in the presence of ATP. p33 ATP tracers were included in the assay to monitor the enzyme activity. Final assay condition was with 50 mM HEPES pH 7.5, 1 mM EGTA, 0.01% Tween 20, 2 mg/ml substrate, 3 mM Manganese Chloride and 70 uM of ATP and was carried out at room temperature for 40 minutes. The reaction was then stopped by the addition of 3% phosphoric acid solution. 10 ul of the reaction was spotted onto a P30 filtermat and washed three times for 5 minutes in 75 mM phosphoric acid and once in methanol prior to drying and scintillation counting. Different concentrations of compounds were added to reaction to assess the activity of compounds to inhibit mTor kinase. IC50 was calculated using Prism software with sigmoidal dose-response curve fitting.

[2] = test system: HDACs (HeLa cell nuclear extracts); assay: HDAC enzymatic activity, Biomol Color de Lys system; assay type: biochemical; details: 1 hour, 25° C.
Outline: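 HeLa nuclear extract incubated with serially diluted compound and […] artificial substrate in 50 mM Tris/Cl pH 8.0, 137 mM NaCl, 2.7 mM KCl, 1 mM MgCl2. Run 1 h at 25 °C, stopped with developer. Fluorescence read (ex 350-380, em 440-460 nm); IC50 from sigmoidal dose-response fit.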

T1 sequence (P42336 whole entry): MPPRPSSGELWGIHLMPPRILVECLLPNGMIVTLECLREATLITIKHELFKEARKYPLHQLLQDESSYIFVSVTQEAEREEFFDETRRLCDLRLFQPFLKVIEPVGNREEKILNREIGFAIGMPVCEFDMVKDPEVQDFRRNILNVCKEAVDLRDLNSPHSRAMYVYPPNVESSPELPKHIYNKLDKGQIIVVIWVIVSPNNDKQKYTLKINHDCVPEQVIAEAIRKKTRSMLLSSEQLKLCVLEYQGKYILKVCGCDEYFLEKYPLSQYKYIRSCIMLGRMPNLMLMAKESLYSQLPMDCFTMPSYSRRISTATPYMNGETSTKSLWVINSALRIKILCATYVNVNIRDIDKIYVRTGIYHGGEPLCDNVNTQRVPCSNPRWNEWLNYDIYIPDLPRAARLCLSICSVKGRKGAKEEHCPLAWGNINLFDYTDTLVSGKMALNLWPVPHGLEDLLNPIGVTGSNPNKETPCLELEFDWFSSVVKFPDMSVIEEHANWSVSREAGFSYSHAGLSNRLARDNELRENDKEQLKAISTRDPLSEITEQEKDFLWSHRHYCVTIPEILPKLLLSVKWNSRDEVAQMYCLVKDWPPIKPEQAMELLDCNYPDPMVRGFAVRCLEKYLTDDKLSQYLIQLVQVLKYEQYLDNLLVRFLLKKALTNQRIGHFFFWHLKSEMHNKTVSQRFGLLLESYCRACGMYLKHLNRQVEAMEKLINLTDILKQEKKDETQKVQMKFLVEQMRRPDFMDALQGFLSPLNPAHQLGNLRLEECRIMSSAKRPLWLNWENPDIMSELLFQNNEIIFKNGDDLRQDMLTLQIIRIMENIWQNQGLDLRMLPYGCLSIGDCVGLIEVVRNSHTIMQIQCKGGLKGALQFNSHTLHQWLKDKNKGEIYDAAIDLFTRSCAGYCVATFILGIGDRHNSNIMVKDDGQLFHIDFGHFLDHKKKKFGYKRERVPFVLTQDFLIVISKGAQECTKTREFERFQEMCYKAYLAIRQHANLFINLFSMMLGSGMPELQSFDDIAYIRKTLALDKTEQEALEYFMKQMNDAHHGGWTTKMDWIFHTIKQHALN
T1 sequence (P27986 whole entry partner): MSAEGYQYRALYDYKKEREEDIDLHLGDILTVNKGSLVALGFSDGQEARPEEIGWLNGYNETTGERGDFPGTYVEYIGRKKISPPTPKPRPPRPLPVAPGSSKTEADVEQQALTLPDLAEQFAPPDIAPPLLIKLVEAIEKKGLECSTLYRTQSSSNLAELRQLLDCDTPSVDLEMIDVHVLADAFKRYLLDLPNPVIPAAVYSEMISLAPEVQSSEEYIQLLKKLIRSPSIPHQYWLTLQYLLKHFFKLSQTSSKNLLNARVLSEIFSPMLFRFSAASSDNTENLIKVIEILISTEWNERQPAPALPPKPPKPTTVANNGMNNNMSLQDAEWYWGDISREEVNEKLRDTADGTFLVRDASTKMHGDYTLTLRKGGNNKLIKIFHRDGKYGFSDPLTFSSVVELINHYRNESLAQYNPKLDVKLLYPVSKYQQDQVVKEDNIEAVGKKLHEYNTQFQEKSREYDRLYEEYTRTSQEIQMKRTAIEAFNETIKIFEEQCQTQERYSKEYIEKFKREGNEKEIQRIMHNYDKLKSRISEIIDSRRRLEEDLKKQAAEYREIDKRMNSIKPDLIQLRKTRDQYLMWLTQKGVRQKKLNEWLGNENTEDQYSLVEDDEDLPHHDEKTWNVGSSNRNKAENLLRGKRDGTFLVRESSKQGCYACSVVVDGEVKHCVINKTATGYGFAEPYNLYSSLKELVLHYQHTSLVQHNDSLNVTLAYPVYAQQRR

IC50 (PI3Kα (p110α/p85α)) [µM]	melting point [°C]	IC50 [1] [µM]	IC50 [2] [µM]	Structure (SMILES)
< 0.1	215 to 217	1 to 10	< 0.1	CN(Cc1cc2nc(-c3cc(F)cc4[nH]ncc34)nc(N3CCOCC3)c2s1)c1ncc(C(=O)NO)cn1 [Compound 69, 2-(((2-(6-fluoro-1H-indazol-4-yl)-4-morpholinothieno[3,2-d]pyrimidin-6-yl)methyl)(methyl)amino)-N-hydroxypyrimidine-5-carboxamide]
< 0.1		1 to 10	< 0.1	CC(=O)OCCN(Cc1cc2nc(-c3cccc4[nH]ncc34)nc(N3CCOCC3)c2s1)c1ncc(C(=O)NO)cn1 [Compound 87]
< 0.1		1 to 10	< 0.1	COC(=O)CN(Cc1cc2nc(-c3cccc4[nH]ncc34)nc(N3CCOCC3)c2s1)c1ncc(C(=O)NO)cn1 [Compound 89]
< 0.1		0.1 to 1	< 0.1	N#CCCN(Cc1cc2nc(-c3cccc4[nH]ncc34)nc(N3CCOCC3)c2s1)c1ncc(C(=O)NO)cn1 [Compound 99]
> 10	178 to 180	> 10		CC(=O)NCc1ccc(-c2nc(N3CCOCC3)c3sc(CN(C)c4ncc(C(=O)NO)cn4)cc3n2)cc1 [Compound 136, 2-(((2-(4-(acetamidomethyl)phenyl)-4-morpholinothieno[3,2-d]pyrimidin-6-yl)methyl)(methyl)amino)-N-hydroxypyrimidine-5-carboxamide]
0.1 to 1		0.1 to 1	< 0.1	CN(Cc1cc2nc(-c3cccc(C(N)=O)c3)nc(N3CCOCC3)c2s1)c1ncc(C(=O)NO)cn1 [Compound 142, 2-(((2-(3-carbamoylphenyl)-4-morpholinothieno[3,2-d]pyrimidin-6-yl)methyl)(methyl)amino)-N-hydroxypyrimidine-5-carboxamide]
> 10		> 10	< 0.1	CN(Cc1cc2nc(-c3cccc4c3CC(=O)N4)nc(N3CCOCC3)c2s1)c1ncc(C(=O)NO)cn1 [Compound 178]
1 to 10		> 10	< 0.1	CN(Cc1cc2nc(-c3cccc4c3CNC4=O)nc(N3CCOCC3)c2s1)c1ncc(C(=O)NO)cn1 [Compound 181]
> 10		> 10	< 0.1	CN(Cc1cc2nc(-c3ccc4c(c3)NC(=O)CO4)nc(N3CCOCC3)c2s1)c1ncc(C(=O)NO)cn1 [Compound 183]
1 to 10		0.1 to 1	< 0.1	CN(Cc1cc2nc(-c3c[nH]c4ccccc34)nc(N3CCOCC3)c2s1)c1ncc(C(=O)NO)cn1 [Compound 184]
< 0.1		> 10	< 0.1	CN(Cc1cc2nc(-c3ccc([N+](=O)[O-])c(O)c3)nc(N3CCOCC3)c2s1)c1ncc(C(=O)NO)cn1 [Compound 293, N-Hydroxy-2-(((2-(3-hydroxy-4-nitrophenyl)-4-morpholinothieno[3,2-d]pyrimidin-6-yl)methyl)(methyl)amino)pyrimidine-5-carboxamide]
0.1 to 1	230 to 235		< 0.1	CC(O)c1ccc(F)c(-c2nc(N3CCOCC3)c3sc(CN(C)c4ncc(C(=O)NO)cn4)cc3n2)c1 (centres unmarked) [Compound 295, 2-(((2-(2-Fluoro-5-(1-hydroxyethyl)phenyl)-4-morpholinothieno[3,2-d]pyrimidin-6-yl)methyl)(methyl)amino)-N-hydroxypyrimidine-5-carboxamide]
1 to 10		> 10	< 0.1	CC(=O)c1ccc(F)c(-c2nc(N3CCOCC3)c3sc(CN(C)c4ncc(C(=O)NO)cn4)cc3n2)c1 [Compound 301]
0.1 to 1		> 10	< 0.1	Cc1ncc(-c2nc(N3CCOCC3)c3sc(CN(C)c4ncc(C(=O)NO)cn4)cc3n2)s1 [Compound 311]
0.1 to 1		> 10	< 0.1	CN(Cc1cc2nc(-c3cccc4[nH]c(=O)[nH]c34)nc(N3CCOCC3)c2s1)c1ncc(C(=O)NO)cn1 [Compound 314]

Further lines, the molecule ahead of its results:

Structure (SMILES)	IC50 (PI3Kα (p110α/p85α)) [µM]	melting point [°C]	IC50 [1] [µM]	IC50 [2] [µM]
O=C(NO)c1cnc(N2CCC(CNCc3cc4nc(-c5cccc6[nH]ncc56)nc(N5CCOCC5)c4s3)CC2)nc1 [Compound 15, 2-(4-(((2-(1H-indazol-4-yl)-4-morpholinothieno[3,2-d]pyrimidin-6-yl)methylamino)methyl)piperidin-1-yl)-N-hydroxypyrimidine-5-carboxamide]	0.1 to 1	170 to 172	> 10	< 0.1
CN(Cc1cc2nc(-c3cccc4[nH]ncc34)nc(N3CCOCC3)c2s1)CC1CCN(c2ncc(C(=O)NO)cn2)CC1 [Compound 16, 2-(4-((((2-(1H-indazol-4-yl)-4-morpholinothieno[3,2-d]pyrimidin-6-yl)methyl)(methyl)amino)methyl)piperidin-1-yl)-N-hydroxypyrimidine-5-carboxamide]	< 0.1	174 to 175	1 to 10	0.1 to 1
O=C(CCCCCNCc1cc2nc(-c3cccc4[nH]ncc34)nc(N3CCOCC3)c2s1)NO [Compound 43, 6-((2-(1H-indazol-4-yl)-4-morpholinothieno[3,2-d]pyrimidin-6-yl)methylamino)-N-hydroxyhexanamide]	1 to 10	128 to 130	1 to 10	< 0.1
CN(CCCC(=O)NO)Cc1cc2nc(-c3cccc4[nH]ncc34)nc(N3CCOCC3)c2s1 [Compound 101, 4-(((2-(1H-indazol-4-yl)-4-morpholinothieno[3,2-d]pyrimidin-6-yl)methyl)(methyl)amino)-N-hydroxybutanamide]	0.1 to 1	115 to 118	0.1 to 1	> 10
COc1ccc(-c2nc(N3CCOCC3)c3sc(CN(CCO)c4ncc(C(=O)NO)cn4)cc3n2)cn1 [Compound 265]	< 0.1		> 10	< 0.1
Nc1ccc(-c2nc(N3CCOCC3)c3sc(CN(CCO)c4ncc(C(=O)NO)cn4)cc3n2)cc1 [Compound 274]	< 0.1		0.1 to 1	< 0.1
Nc1ccc(-c2nc(N3CCOCC3)c3sc(C(=O)NCC4CCN(c5ncc(C(=O)NO)cn5)CC4)cc3n2)cc1 [Compound 307, 2-(4-Aminophenyl)-N-((1-(5-(hydroxycarbamoyl)pyrimidin-2-yl)piperidin-4-yl)methyl)-4-morpholinothieno[3,2-d]pyrimidine-6-carboxamide]	0.1 to 1	232 to 238		< 0.1
CNc1ccc(-c2nc(N3CCOCC3)c3sc(S(=O)(=O)NCC4CCN(c5ncc(C(=O)NO)cn5)CC4)cc3n2)cn1 [Compound 310, N-Hydroxy-2-(4-((2-(6-(methylamino)pyridin-3-yl)-4-morpholinothieno[3,2-d]pyrimidine-6-sulfonamido)methyl)piperidin-1-yl)pyrimidine-5-carboxamide]	< 0.1	190 to 197		< 0.1
Cn1cc(-c2nc(N3CCOCC3)c3sc(CN(CCO)c4ncc(C(=O)NO)cn4)cc3n2)cn1 [Compound 313]	0.1 to 1		> 10	< 0.1
CS(=O)(=O)N1CCN(Cc2cc3nc(-c4ccc(OCCCCC(=O)NO)cc4)nc(N4CCOCC4)c3s2)CC1 [Compound 319, N-Hydroxy-5-(4-(6-((4-(methylsulfonyl)piperazin-1-yl)methyl)-4-morpholinothieno[3,2-d]pyrimidin-2-yl)phenoxy)pentanamide]	0.1 to 1	140 to 144		0.1 to 1
CS(=O)(=O)N1CCN(Cc2cc3nc(-c4ccc(OCCCCCC(=O)NO)cc4)nc(N4CCOCC4)c3s2)CC1 [Compound 320, N-Hydroxy-6-(4-(6-((4-(methylsulfonyl)piperazin-1-yl)methyl)-4-morpholinothieno[3,2-d]pyrimidin-2-yl)phenoxy)hexanamide]	0.1 to 1	140 to 142		0.1 to 1
CS(=O)(=O)N1CCN(Cc2cc3nc(-c4ccc(OCCCCCCC(=O)NO)cc4)nc(N4CCOCC4)c3s2)CC1 [Compound 321, N-Hydroxy-7-(4-(6-((4-(methylsulfonyl)piperazin-1-yl)methyl)-4-morpholinothieno[3,2-d]pyrimidin-2-yl)phenoxy)heptanamide]	0.1 to 1	143 to 145		0.1 to 1

From US20130102595A1 (Curis, Inc., priority 2011, published 2013)
